Data: patent US9724347B2, “1-pyrazolyl-3-(4-((2-anilinopyrimidin-4-yl)oxy)napththalen-1-yl) ureas as P38 MAP knase inhibitors” (Respivert Ltd., priority 2011, dated 2017)

Experiments:
[1] = target: p38 MAPKα isoform (MAPK14) (Homo sapiens (Human), UniProt Q16539); experiment: p38 MAPKα enzyme inhibition (FRET, Z-LYTE); assay type: biochemical
Description: The enzyme inhibitory activities of compounds disclosed herein were determined by FRET using synthetic peptides labelled with both donor and acceptor fluorophores (Z-LYTE, Invitrogen Ltd., Paisley, UK). The inhibitory activities of test compounds against the p38 MAPKα isoform (MAPK14: Invitrogen), were evaluated indirectly by determining the level of activation/phosphorylation of the down-stream molecule, MAPKAP-K2. […] The mixture was incubated for 1 hr at RT. Development reagent (protease, 5 μL) was added for 1 hr prior to detection in a fluorescence microplate reader (Varioskan® Flash, ThermoFisher Scientific). In all cases, the site-specific protease cleaves non-phosphorylated peptide only and eliminates the FRET signal. Phosphorylation levels of each reaction were calculated using the ratio of coumarin emission (donor) over fluorescein emission (acceptor), for which low ratios indicate high phosphorylation and high ratios indicate low phosphorylation levels.

GSK 3α enzyme isoform = GSK 3α enzyme isoform (Homo sapiens (Human), UniProt P49840); experiment: GSK 3α enzyme inhibition (FRET, Z-LYTE); assay type: biochemical; conditions: read-out: IC50 Values for Enzyme Inhibition GSK3α
GSK 3α enzyme isoform, sequence (P49840 whole entry, canonical isoform): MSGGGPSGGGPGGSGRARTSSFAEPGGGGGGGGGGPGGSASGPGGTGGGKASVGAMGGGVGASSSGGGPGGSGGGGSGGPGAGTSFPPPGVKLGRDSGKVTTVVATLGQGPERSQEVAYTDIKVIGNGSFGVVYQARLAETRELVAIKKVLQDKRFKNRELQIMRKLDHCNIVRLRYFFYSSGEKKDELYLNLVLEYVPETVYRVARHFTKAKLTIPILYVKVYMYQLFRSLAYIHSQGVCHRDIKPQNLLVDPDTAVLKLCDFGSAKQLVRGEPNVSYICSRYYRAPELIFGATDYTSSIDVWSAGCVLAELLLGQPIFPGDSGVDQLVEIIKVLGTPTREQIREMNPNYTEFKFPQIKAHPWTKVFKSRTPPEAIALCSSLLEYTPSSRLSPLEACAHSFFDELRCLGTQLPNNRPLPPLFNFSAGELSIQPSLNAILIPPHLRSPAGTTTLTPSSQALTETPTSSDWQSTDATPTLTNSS
Description: The enzyme inhibitory activities of compounds disclosed herein were determined by FRET using synthetic peptides labelled with both donor and acceptor fluorophores (Z-LYTE, Invitrogen Ltd., Paisley, UK).
The inhibitory activities of test compounds against the GSK 3α enzyme isoform (Invitrogen), were evaluated by determining the level of activation/phosphorylation of the target peptide.
The GSK3-α protein (500 ng/mL, 2.5 μL) was mixed with the test compound (2.5 μL at either 4 μg/mL, 0.4 μg/mL, 0.04 μg/mL, or 0.004 μg/mL) for 2 hr at RT. The FRET peptide (8 μM, 2.5 μL), which is a phosphorylation target for GSK3α, and ATP (40 μM, 2.5 μL) were then added to the enzyme/compound mixture and the resulting mixture incubated for 1 hr. Development reagent (protease, 5 μL) was added for 1 hr prior to detection in a fluorescence microplate reader (Varioskan® Flash, ThermoFisher Scientific).
In all cases, the site-specific protease cleaves non-phosphorylated peptide only and eliminates the FRET signal. Phosphorylation levels of each reaction were calculated using the ratio of coumarin emission (donor) over fluorescein emission (acceptor), for which low ratios indicate high phosphorylation and high ratios indicate low phosphorylation levels.

[2] = test system: ICAM-1 expression in BEAS2B cells; experiment: Poly I:C-induced ICAM-1 expression in BEAS2B cells; assay type: cell-based, human; conditions: Homo sapiens, BEAS-2B, read-out: PolyIC/ICAM1 IC50 (BEAS2B)
Description: Poly I:C was used in these studies as a simple, RNA virus mimic. Poly I:C-Oligofectamine mixture (1 μg/mL Poly I:C, ±2% Oligofectamine, 25 μL; Invivogen Ltd., San Diego, Calif., and Invitrogen, Carlsbad, Calif., respectively) was transfected into BEAS2B cells (human bronchial epithelial cells, ATCC). Cells were pre-incubated with final concentrations of test compounds for 2 hr and the level of ICAM-1 expression on the cell surface was determined by cell-based ELISA. At a time point 18 hr after poly I:C transfection, cells were fixed with 4% formaldehyde in PBS (100 μL) and then endogenous peroxidase was quenched by the addition of washing buffer (100 μL, 0.05% Tween in PBS: PBS-Tween) containing 0.1% sodium azide and 1% hydrogen peroxide. Cells were washed with wash-buffer (3×200 μL). and after blocking the wells with 5% milk in PBS-Tween (100 μL) for 1 hr, the cells were incubated with anti-human ICAM-1 antibody (50 μL; Cell Signaling Technology, Danvers, Mass.) in 1% BSA PBS overnight at 4° C.
The cells were washed with PBS-Tween (3×200 μL) and incubated with the secondary antibody (100 μL; HRP-conjugated anti-rabbit IgG, Dako Ltd., Glostrup, Denmark). The cells were then incubated with of substrate (50 μL) for 2-20 min, followed by the addition of stop solution (50 μL, 1N H2SO4). The ICAM-1 signal was detected by reading […] the absorbance at 450 nm against a reference wavelength of 655 nm using a spectrophotometer. The cells were then washed with PBS-Tween (3×200 μL) and total cell numbers in each well were determined by reading absorbance at 595 nm after Crystal Violet staining (50 μL of a 2% solution in PBS) and elution by 1% SDS solution (100 μL) in distilled water. The measured OD 450-655 readings were corrected for cell number by dividing with the OD595 reading in each well. The inhibition of ICAM-1 expression was calculated at each concentration of test compound by comparison with vehicle control.

p38MAPKγ (MAPK12) = p38MAPKγ (MAPK12) (Homo sapiens (Human), UniProt P53778); experiment: p38 MAPKγ enzyme inhibition (FRET, Z-LYTE); assay type: biochemical
p38MAPKγ (MAPK12), sequence (P53778 whole entry): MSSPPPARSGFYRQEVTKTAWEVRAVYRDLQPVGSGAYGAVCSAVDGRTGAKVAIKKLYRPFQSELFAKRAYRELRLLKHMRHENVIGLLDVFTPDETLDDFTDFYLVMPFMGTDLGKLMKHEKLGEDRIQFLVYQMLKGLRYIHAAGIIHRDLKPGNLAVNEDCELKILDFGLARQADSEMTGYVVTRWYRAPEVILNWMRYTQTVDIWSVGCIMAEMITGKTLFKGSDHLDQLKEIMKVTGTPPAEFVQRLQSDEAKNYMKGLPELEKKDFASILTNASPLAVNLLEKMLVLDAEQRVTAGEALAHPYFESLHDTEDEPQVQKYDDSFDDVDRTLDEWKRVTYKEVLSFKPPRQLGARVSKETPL
Description: The enzyme inhibitory activities of compounds disclosed herein were determined by FRET using synthetic peptides labelled with both donor and acceptor fluorophores (Z-LYTE, Invitrogen Ltd., Paisley, UK). […] Development reagent (protease, 5 μL) was added for 1 hr prior to detection in a fluorescence microplate reader (Varioskan® Flash, Thermo Scientific). In all cases, the site-specific protease cleaves non-phosphorylated peptide only and eliminates the FRET signal. Phosphorylation levels of each reaction were calculated using the ratio of coumarin emission (donor) over fluorescein emission (acceptor), for which low ratios indicate high phosphorylation and high ratios indicate low phosphorylation levels.

d-U937 cells = experiment: Cell viability: MTT assay; assay type: cell-based, human; conditions: 1 μg/mL
Description: Differentiated U937 cells were pre-incubated with each test compound (final concentration 1 μg/mL or 10 μg/mL in 200 μL media indicated below) under two protocols: the first for 4 hr in 5% FCS RPMI1640 media and the second in 10% FCS RPMI1640 media for 24 h. The supernatant was replaced with new media (200 μL) and MTT stock solution (10 μL, 5 mg/mL) was added to each well. After incubation for 1 hr the media were removed, DMSO (200 μL) was added to each well and the plates were shaken lightly for 1 hr prior to reading the absorbance at 550 nm. The percentage loss of cell viability was calculated for each well relative to vehicle (0.5% DMSO) treatment. Consequently an apparent increase in cell viability for drug treatment relative to vehicle is tabulated as a negative percentage.

p38 MAPKα isoform (MAPK14), sequence (Q16539 whole entry, canonical isoform): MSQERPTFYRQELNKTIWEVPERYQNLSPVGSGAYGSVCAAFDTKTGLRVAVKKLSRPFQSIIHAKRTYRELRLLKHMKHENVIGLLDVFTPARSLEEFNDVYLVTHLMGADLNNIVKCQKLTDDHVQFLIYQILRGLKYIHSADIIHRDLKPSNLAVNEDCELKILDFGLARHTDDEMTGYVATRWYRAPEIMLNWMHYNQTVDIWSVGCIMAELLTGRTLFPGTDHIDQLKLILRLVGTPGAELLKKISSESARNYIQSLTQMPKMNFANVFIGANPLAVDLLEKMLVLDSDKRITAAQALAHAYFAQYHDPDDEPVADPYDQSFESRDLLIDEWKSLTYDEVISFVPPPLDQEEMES

Compound | IC50 [1] | IC50 (GSK 3α enzyme isoform) | IC50 [2] | IC50 (p38MAPKγ (MAPK12)) | MTT Assay Cell viability at time point in d-U937 Cells (d-U937 cells; 4 h) | MTT Assay Cell viability at time point in d-U937 Cells (d-U937 cells; 24 h)
Cc1ccc(-n2nc(C(C)(C)C)cc2NC(=O)Nc2ccc(Oc3ccnc(Nc4ccccc4C(C)C)n3)c3ccccc23)cc1 [Example 20, 1-(3-(tert-butyl)-1-(p-tolyl)-1H-pyrazol-5-yl)-3-(4-((2-((2-isopropylphenyl)amino)pyrimidin-4-yl)oxy)naphthalen-1-yl)urea] | 9 nM | > 16000 nM | 16 nM | > 16000 nM | −ve (−ve and +ve indicate the value is below and above respectively, the no significant effect threshold defined as 30% inhibition at 1 μg/mL at the time point indicated) | −ve (−ve and +ve indicate the value is below and above respectively, the no significant effect threshold defined as 30% inhibition at 1 μg/mL at the time point indicated)
COc1ccc(Nc2nccc(Oc3ccc(NC(=O)Nc4cc(C(C)(C)C)nn4-c4ccc(C)cc4)c4ccccc34)n2)cc1 [Example 17, 1-(3-(tert-butyl)-1-(p-tolyl)-1H-pyrazol-5-yl)-3-(4-((2-((4-methoxyphenyl)amino)pyrimidin-4-yl)oxy)naphthalen-1-yl)urea] | 83 nM | > 16300 nM | 6.7 nM | > 16300 nM | −ve (−ve and +ve indicate the value is below and above respectively, the no significant effect threshold defined as 30% inhibition at 1 μg/mL at the time point indicated) | −ve (−ve and +ve indicate the value is below and above respectively, the no significant effect threshold defined as 30% inhibition at 1 μg/mL at the time point indicated)
Cc1ccc(-n2nc(C(C)(C)C)cc2NC(=O)Nc2ccc(Oc3ccnc(Nc4ccc(O)cc4Cl)n3)c3ccccc23)cc1 [Example 31, 1-(3-(tert-butyl)-1-(p-tolyl)-1H-pyrazol-5-yl)-3-(4-((2-((2-chloro-4-hydroxyphenyl)amino)pyrimidin-4-yl)oxy)naphthalen-1-yl)urea] | 118 nM | > 1580 nM | 80 nM | > 1580 nM | −ve (−ve and +ve indicate the value is below and above respectively, the no significant effect threshold defined as 30% inhibition at 1 μg/mL at the time point indicated) | −ve (−ve and +ve indicate the value is below and above respectively, the no significant effect threshold defined as 30% inhibition at 1 μg/mL at the time point indicated)
Cc1ccc(Nc2nccc(Oc3ccc(NC(=O)Nc4cc(C(C)(C)C)nn4-c4ccc(C)cc4)c4ccccc34)n2)cc1 [Example 11, 1-(3-(tert-butyl)-1-(p-tolyl)-1H-pyrazol-5-yl)-3-(4-((2-(p-tolylamino)pyrimidin-4-yl)oxy)naphthalen-1-yl)urea] | 356 nM | > 16700 nM | 11 nM | > 16700 nM | −ve (−ve and +ve indicate the value is below and above respectively, the no significant effect threshold defined as 30% inhibition at 1 μg/mL at the time point indicated) | −ve (−ve and +ve indicate the value is below and above respectively, the no significant effect threshold defined as 30% inhibition at 1 μg/mL at the time point indicated)
CC(C)(C)c1cc(NC(=O)Nc2ccc(Oc3ccnc(Nc4ccccc4)n3)c3ccccc23)n(-c2ccc(O)cc2)n1 [Example 3, 1-(3-(tert-butyl)-1-(4-hydroxyphenyl)-1H-pyrazol-5-yl)-3-(4-((2-(phenylamino)pyrimidin-4-yl)oxy)naphthalen-1-yl)urea] | 173 nM | 2490 nM | 4.1 nM | 1500 nM | −ve (−ve and +ve indicate the value is below and above respectively, the no significant effect threshold defined as 30% inhibition at 1 μg/mL at the time point indicated) | −ve (−ve and +ve indicate the value is below and above respectively, the no significant effect threshold defined as 30% inhibition at 1 μg/mL at the time point indicated)
Cc1ccc(-n2nc(C(C)(C)C)cc2NC(=O)Nc2ccc(Oc3ccnc(Nc4ccc(F)cc4)n3)c3ccccc23)cc1 [Example 23, 1-(3-(tert-butyl)-1-(p-tolyl)-1H-pyrazol-5-yl)-3-(4-((2-((4-fluorophenyl)amino)pyrimidin-4-yl)oxy)naphthalen-1-yl)urea] | 212 nM | > 1660 nM | 4.2 nM | > 1660 nM | −ve (−ve and +ve indicate the value is below and above respectively, the no significant effect threshold defined as 30% inhibition at 1 μg/mL at the time point indicated) | −ve (−ve and +ve indicate the value is below and above respectively, the no significant effect threshold defined as 30% inhibition at 1 μg/mL at the time point indicated)
COc1cccc(Nc2nccc(Oc3ccc(NC(=O)Nc4cc(C(C)(C)C)nn4-c4ccc(C)cc4)c4ccccc34)n2)c1 [Example 14, 1-(3-(tert-butyl)-1-(p-tolyl)-1H-pyrazol-5-yl)-3-(4-((2-((3-methoxyphenyl)amino)pyrimidin-4-yl)oxy)naphthalen-1-yl)urea] | 119 nM | > 16300 nM | 9.8 nM | > 16300 nM | −ve (−ve and +ve indicate the value is below and above respectively, the no significant effect threshold defined as 30% inhibition at 1 μg/mL at the time point indicated) | −ve (−ve and +ve indicate the value is below and above respectively, the no significant effect threshold defined as 30% inhibition at 1 μg/mL at the time point indicated)
